Key:
in vivo = settings: rat, po, 5 mg/kg
Description: AUC (0 to 24 hrs) in rat at 5 mg/kg, po

in vitro = settings: human, MT2 cells
Description: Cytotoxicity against human MT2 cells

[1] = Dissociation constant, pKa of the compound; format: physicochemical
[2] = Half life in human liver microsomes at 0.5 uM in presence of NADPH by LC-MS/MS analysis; format: ADME
[3] = Half life in rat liver microsomes at 0.5 uM in presence of NADPH by LC-MS/MS analysis; format: ADME
[4] = Half life in dog liver microsomes at 0.5 uM in presence of NADPH by LC-MS/MS analysis; format: ADME, Canis lupus familiaris
[5] = Half life in monkey liver microsomes at 0.5 uM in presence of NADPH by LC-MS/MS analysis; format: ADME, Macaca mulatta; settings: rhesus monkey
[6] = Oral bioavailability in mouse at 5 mg/kg by LC-MS/MS analysis; format: ADME, organism-based; settings: in vivo
[7] = Oral bioavailability in rat at 5 mg/kg by LC-MS/MS analysis; format: ADME, organism-based; settings: in vivo
[8] = Oral bioavailability in dog at 1.85 mg/kg by LC-MS/MS analysis; format: ADME, organism-based, Canis lupus familiaris; settings: in vivo
[9] = Oral bioavailability in Cynomolgus monkey at 2 mg/kg by LC-MS/MS analysis; format: ADME, organism-based, Macaca fascicularis; settings: in vivo
[10] = AUCtotal in mouse at 5 mg/kg administered via oral gavage by LC-MS/MS analysis; format: ADME, organism-based; parameters: dose 5 mg/kg, route oral, time AUCmax; settings: in vivo
[11] = AUCtotal in rat at 5 mg/kg administered via oral gavage by LC-MS/MS analysis; format: ADME, organism-based; parameters: dose 5 mg/kg, time AUCmax, route oral; settings: in vivo
[12] = AUCtotal in dog at 1.85 mg/kg administered via oral gavage by LC-MS/MS analysis; format: ADME, organism-based, Canis lupus familiaris; parameters: dose 1.85 mg/kg, time AUCmax, route oral; settings: in vivo
[13] = AUCtotal in Cynomolgus monkey at 2 mg/kg administered via oral gavage by LC-MS/MS analysis; format: ADME, organism-based, Macaca fascicularis; parameters: dose 2 mg/kg, route oral, time AUCmax; settings: in vivo
[14] = Drug level in mouse at 5 mg/kg administered via oral gavage after 24 hrs by LC-MS/MS analysis; format: ADME, organism-based; settings: in vivo, read-out: Drug uptake
[15] = Drug level in rat at 5 mg/kg administered via oral gavage after 24 hrs by LC-MS/MS analysis; format: ADME, organism-based; settings: in vivo, read-out: Drug uptake
[16] = Drug level in dog at 1.85 mg/kg administered via oral gavage after 24 hrs by LC-MS/MS analysis; format: ADME, organism-based, Canis lupus familiaris; settings: in vivo, read-out: Drug uptake
[17] = Drug level in Cynomolgus monkey at 2 mg/kg administered via oral gavage after 24 hrs by LC-MS/MS analysis; format: ADME, organism-based, Macaca fascicularis; settings: in vivo, read-out: Drug uptake
[18] = Half life in iv dosed mouse by LC-MS/MS analysis; format: ADME, organism-based; settings: in vivo
[19] = Half life in iv dosed rat by LC-MS/MS analysis; format: ADME, organism-based; settings: in vivo
[20] = Half life in iv dosed dog by LC-MS/MS analysis; format: ADME, organism-based, Canis lupus familiaris; settings: in vivo
[21] = Half life in iv dosed Cynomolgus monkey by LC-MS/MS analysis; format: ADME, organism-based, Macaca fascicularis; settings: in vivo
[22] = Protein binding in human serum by ultracentrifugation method; format: ADME; settings: read-out: PB
Salmonella typhimurium = assay: Mutagenicity in Salmonella typhimurium; format: toxicity, organism-based; settings: salmonella enterica subsp. enterica serovar typhimurium
[23] = Inhibition of CYP450 in human microsomes; format: ADME

With `C=C(C)[C@@H]1CC[C@]2(C(=O)O)CC[C@]3(C)[C@H](CC[C@@H]4[C@@]5(C)CC=C(c6ccc(C(=O)O)cc6)C(C)(C)[C@@H]5CC[C@]43C)[C@@H]12` the AUC(0-t) at 24 h (in vivo) was 5.72 µM·h and the CC50 (in vitro) was 27.2 nM.

`C=C(C)[C@@H]1CC[C@]2(C(=O)NCCN(C)C)CC[C@]3(C)[C@H](CC[C@@H]4[C@@]5(C)CC=C(c6ccc(C(=O)O)cc6)C(C)(C)[C@@H]5CC[C@]43C)[C@@H]12` showed an AUC(0-t) at 24 h (in vivo) of 1.62 µM·h and a CC50 (in vitro) of 2.61 nM.

For `C=C(C)[C@@H]1CC[C@]2(CNCCCN3CCS(=O)(=O)CC3)CC[C@]3(C)[C@H](CC[C@@H]4[C@@]5(C)CC=C(c6ccc(C(=O)O)cc6)C(C)(C)[C@@H]5CC[C@]43C)[C@@H]12`, the pKa [1] was 4.5, the AUC(0-t) at 24 h (in vivo) was 1.71 µM·h and the CC50 (in vitro) was 3.5 nM.

With `C=C(C)[C@@H]1CC[C@]2(CNCCN(C)C)CC[C@]3(C)[C@H](CC[C@@H]4[C@@]5(C)CC=C(c6ccc(C(=O)O)cc6)C(C)(C)[C@@H]5CC[C@]43C)[C@@H]12` the AUC(0-t) at 24 h (in vivo) was 0.153 µM·h and the CC50 (in vitro) was 1.24 nM.

`C=C(C)[C@@H]1CC[C@]2(CNC(C)C)CC[C@]3(C)[C@H](CC[C@@H]4[C@@]5(C)CC=C(c6ccc(C(=O)O)cc6)C(C)(C)[C@@H]5CC[C@]43C)[C@@H]12` showed a CC50 (in vitro) of 2.36 nM.

In the case of `C=C(C)[C@@H]1CC[C@]2(CNCCO)CC[C@]3(C)[C@H](CC[C@@H]4[C@@]5(C)CC=C(c6ccc(C(=O)O)cc6)C(C)(C)[C@@H]5CC[C@]43C)[C@@H]12`, the AUC(0-t) at 24 h (in vivo) is reported as 4.98 µM·h and the CC50 (in vitro) is reported as 8.48 nM.

With `C=C(C)[C@@H]1CC[C@]2(CNCCCN3CCCC3=O)CC[C@]3(C)[C@H](CC[C@@H]4[C@@]5(C)CC=C(c6ccc(C(=O)O)cc6)C(C)(C)[C@@H]5CC[C@]43C)[C@@H]12` the AUC(0-t) at 24 h (in vivo) was 1.04 µM·h and the CC50 (in vitro) was 5.8 nM.

Work on `C=C(C)[C@@H]1CC[C@]2(NCCN3CCS(=O)(=O)CC3)CC[C@]3(C)[C@H](CC[C@@H]4[C@@]5(C)CC=C(c6ccc(C(=O)O)cc6)C(C)(C)[C@@H]5CC[C@]43C)[C@@H]12` [BMS-955176] yielded a half-life at 0.5 µM [2] greater than 2 h, a half-life at 0.5 µM [3] greater than 2 h and a half-life at 0.5 µM [4] greater than 2 h. For the same compound, the half-life at 0.5 µM [5] was 0.2 h, the bioavailability [6] was 27% and the bioavailability [7] was 26%. It also gave a bioavailability [8] of 8.5%, a bioavailability [9] of 3.9% and an AUC [10] of 28.9 µM·h. For the same compound, the AUC [11] was 14.2 µM·h, the AUC [12] was 29.4 µM·h and the AUC [13] was 0.995 µM·h. For the same compound, the concentration at 24 h [14] was 256 nM, the concentration at 24 h [15] was 128 nM and the concentration at 24 h [16] was 559 nM. It also gave a concentration at 24 h [17] of 17.4 nM, a half-life [18] of 8.9 h and a half-life [19] of 6.6 h. It also gave a half-life [20] of 31.7 h, a half-life [21] of 8.6 h and a fraction unbound [22] of less than 0.16. For the same compound, the Activity (Salmonella typhimurium) was “Non-toxic”, the “inhibition (INH)” value [23] was “Not Active” and the AUC(0-t) at 24 h (in vivo) was 4.13 µM·h. The CC50 (in vitro) was 9.2 nM.

From ChEMBL document CHEMBL3826912 (ACS Med Chem Lett, 2016)
